Data on one compound can be found in article PMC5314947 (Cancer prevention research (Philadelphia, Pa.), 2009).

Where “and” joins values, the source holds several entries; their conditions need not be identical. Equal entries are not always repeated.

For data set [1] the following is noted: human, in vivo, po.
For data set [2] the following is noted: human, in vivo, po. The source holds these as a separate data set.
The conditions of data set [3]: rat, in vivo; cited from earlier work.
The conditions of data set [4]: rhesus monkey, in vivo; cited from earlier work.

With `COc1cc2c(c3oc(=O)c4c(c13)CCC4=O)[C@@H]1C=CO[C@@H]1O2` [AFB1, aflatoxin B1], in data set [1], the “AUC_Extrap of AFB1 equivalents in plasma” value was determined as 50.9 ± 8%; the “Tmax of AFB1 equivalents in plasma” value is 1.0 h and ~ 1 h; the “ka (absorption rate constant) of AFB1 equivalents in plasma” value came to 5.05 ± 1.10 h⁻¹; the “t1/2α (harmonic mean) of AFB1 equivalents in plasma” value stood at 2.86 h. In addition, in data set [1], the “Á (disposition rate constant) of AFB1 equivalents in plasma” value amounted to 0.24 ± 0.06 h⁻¹ and the “β (disposition rate constant) of AFB1 equivalents in plasma” value amounted to 0.01 ± 0.003 h⁻¹. Further, in data set [2], the “AFB1 dose excreted in urine in the first 72 hours” value is 29.0 ± 2.31% and 34.4 ± 5.60% and 33.3 ± 2.79%. Further, the “in situ absorption rate constant” value in data set [3] is 5.84 ± 0.05 h⁻¹. Moreover, in data set [4], the “dose eliminated in urine as unbound within the first 24 hours” value is ~ 30%, the “dose remaining in the liver” value is 13.6% and the “dose remaining in the plasma” value is recorded as 5.8%.
